Tests used:
Sprague Dawley rats = test: Blast-induced traumatic brain injury/cognitive deficits measured by PEL; assay type: in vivo, rat; conditions: 10 mg/kg PO 1 h post-blast; PEL 48 hours post-blast
Source text: Single blast-induced traumatic brain injury/cognitive deficits were induced, modified for use in rats according to the protocol of Goldstein et al., “Chronic traumatic encephalopathy in blast-exposed military veterans and a blast neurotrauma mouse model,” Science Translational Medicine, Vol. 4, Issue 134, pp. 134ra60, 2012. Male 2-3 month old Sprague Dawley rats were used. Rats were housed in Lucite cages with aspen wood chip bedding, maintained on a 12:12 light:dark cycle (lights on at 5 AM), and given ad libitum access to Purina lab chow (USA) and tap water throughout the study. Rats were first anesthetized using 3.5-4% isoflurane, then the ears were protected with 1.5×1.5 mm foam plugs (Pura-Fit®, Moldex-Metric Inc., Culver City, Calif.), and the rat was placed into a head access rodent thoracic restrainer (Stoelting, USA) to protect the body while allowing the head to move freely. […]
PEL (Positive emotional learning) was conducted 48 hours post-blast. […] High frequency ultrasonic vocalizations (USVs) were recorded and analyzed by sonogram with Avasoft SASlab Pro (Germany) as previously described by Burgdorf et al., “Positive emotional learning is regulated in the medial prefrontal cortex by GluN2B-containing NMDA receptors,” Neuroscience, 192:515-523, 2011. Frequency raodulated 50-kH-z USVs that occurred during each the no-stimulation periods were quantified to measure PEL. […]

NMDAR2D = NMDAR2D (Homo sapiens, UniProt O15399+Q05586); test: Potentiation of [3H]MK-801 binding, NMDAR2D; parameters: species or system rat; conditions: NMDAR2D binding profile, wild-type
Chain of NMDAR2D (O15399 28-1336, species assumed, other chains not shown): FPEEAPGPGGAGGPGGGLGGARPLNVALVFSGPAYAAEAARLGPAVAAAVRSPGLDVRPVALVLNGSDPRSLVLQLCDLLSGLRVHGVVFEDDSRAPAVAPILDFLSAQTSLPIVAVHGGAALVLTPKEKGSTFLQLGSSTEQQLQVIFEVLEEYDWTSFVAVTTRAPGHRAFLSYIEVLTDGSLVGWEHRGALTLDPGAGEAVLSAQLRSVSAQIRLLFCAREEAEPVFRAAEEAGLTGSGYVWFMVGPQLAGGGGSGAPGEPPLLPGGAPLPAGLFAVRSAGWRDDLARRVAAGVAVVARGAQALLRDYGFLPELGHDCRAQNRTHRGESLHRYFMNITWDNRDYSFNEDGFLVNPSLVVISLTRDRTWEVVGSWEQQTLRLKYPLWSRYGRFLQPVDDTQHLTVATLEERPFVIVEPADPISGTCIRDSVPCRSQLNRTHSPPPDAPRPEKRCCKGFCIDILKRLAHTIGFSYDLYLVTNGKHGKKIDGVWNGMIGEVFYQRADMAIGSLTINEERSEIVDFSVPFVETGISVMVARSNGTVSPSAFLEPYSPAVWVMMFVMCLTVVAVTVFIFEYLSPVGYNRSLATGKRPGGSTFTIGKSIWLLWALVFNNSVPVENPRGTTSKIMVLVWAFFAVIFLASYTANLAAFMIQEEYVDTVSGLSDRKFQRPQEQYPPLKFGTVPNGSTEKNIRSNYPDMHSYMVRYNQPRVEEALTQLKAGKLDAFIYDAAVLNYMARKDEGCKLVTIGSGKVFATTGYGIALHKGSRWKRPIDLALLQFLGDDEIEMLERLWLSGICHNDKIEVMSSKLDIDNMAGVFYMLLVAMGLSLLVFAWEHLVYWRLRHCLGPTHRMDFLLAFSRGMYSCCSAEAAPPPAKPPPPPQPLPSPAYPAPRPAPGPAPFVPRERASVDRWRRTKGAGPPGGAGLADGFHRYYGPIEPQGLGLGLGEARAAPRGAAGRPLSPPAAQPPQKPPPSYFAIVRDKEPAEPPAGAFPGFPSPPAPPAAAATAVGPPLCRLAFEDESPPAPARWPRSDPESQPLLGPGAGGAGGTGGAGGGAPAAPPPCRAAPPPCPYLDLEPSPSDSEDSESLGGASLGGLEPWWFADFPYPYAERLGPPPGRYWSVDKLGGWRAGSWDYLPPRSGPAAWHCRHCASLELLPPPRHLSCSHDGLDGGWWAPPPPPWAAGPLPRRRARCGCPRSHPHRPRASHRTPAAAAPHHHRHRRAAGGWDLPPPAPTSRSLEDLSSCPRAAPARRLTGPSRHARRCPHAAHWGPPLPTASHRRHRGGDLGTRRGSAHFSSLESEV
Experimental: Assays were conducted as described by Moskal et al., “GLYX-13: a monoclonal antibody-derived peptide that acts as an N-rnethyl-D-aspartate receptor modulator,” Neuropharmacology, 49, 1077-87, 2005. The potentiation of [^3H]MK-801 binding (5 nrM; 22.5 Ci/mmol) to well washed rat cortical membranes (200 μg) was measured under non-equilibrium conditions (15 min @ 25° C.) in the presence of increasing concentrations of Compound A.
Assays were conducted as described above in Example 5, by Moskal et al. (2005).

## CC(C)CN1CCC[C@]12CN([C@H](C(N)=O)[C@@H](C)O)C2=O [Compound A, (2S,3R)-3-hydroxy-2-((R)-5-isobutyl-1-oxo-2,5-diazaspiro[3.4]octan-2-yl)butanamide]
Sprague Dawley rats
  blast-induced cognitive deficits as measured by PEL: reversed blast-induced cognitive deficits

## CC(C)CN1CCC[C@@]12CN([C@H](C(N)=O)[C@@H](C)O)C2=O [Compound B, (2S,3R)-3-hydroxy-2-((S)-5-isobutyl-1-oxo-2,5-diazaspiro[3.4]octan-2-yl)butanamide]
NMDAR2D
  EC50: 3.98 nM
Sprague Dawley rats
  blast-induced cognitive deficits as measured by PEL: reversed blast-induced cognitive deficits
